# Tests used:
# [1] = tested on: Pseudomonas aeruginosa Hamburgensis; assay: serial dilution test in microtiter system (bacteriostasis, MIC); format: cell-based; settings: liquid medium, 18 to 20 h at 37°C, read-out: MHK-Werte Pseud. aerug. Hbg.
# Description: (§1) Für die Untersuchungen wurde die Methode des Reihenverdünnungstestes im Mikrotitersystem angewandt. Die Prüfung der Substanzen auf Bakteriostase erfolgte in flüssigem Medium. Es wurde die Bakteriostasewirkung bei folgenden Konzentrationen untersucht.
# (§2) Es wurde ein Nährboden folgender Zusammensetzung benutzt: 10 g Pepton, 8 g Fleischextrakt-Oxoid, 3 g Natriumschlorid, 2 g sek. Natriumphosphat werden mit dest. Wasser auf 1000 ml aufgefüllt (pH 7,2-7,4). Lediglich bei der Testung gegen Streptokokken wurde 1% Glucose hinzugefügt. Das Alter der Primärkulturen betrug etwa 20 Stunden. Die Einstellung der Keimsuspension erfolgte am Photometer (nach "Eppendorf") (Reagenzglas-Durchmesser 14 mm, Filter 546 nm) anhand der Trübung einer Bariumsulfat-Vergleichssuspension, die durch eine Bariumsulfat-Aufschwemmung erzeugt wurde, welche durch die Zugabe von 3,0 ml 1%ige Bariumchloridlösung in 97 ml 1%ige Schwefelsäure entstand. Nach der Einstellung wurden Streptococcus Aronson im Verhältnis 1:15 und die übrigen Testkeime im Verhältnis 1:1500 mit einer Kochsalzlösung weiter verdünnt.
# (§3) 16 mg der jeweiligen Substanz wurden in 10 ml-Meßkolben eingewogen und mit dem Lösungsmittel bis zur Marke aufgefüllt. Die weitere Verdünnungsreihe wurde mit destilliertem Wasser oder dem jeweiligen Lösungsmittel hergestellt.
# (§4) Die Vertiefungen der Mikrotiterplatten wurden mit 0,2 ml Nährmedium, 0,01 ml der entsprechenden Substanzverdünnung und mit einem Tropfen Keimsuspension (0,01 ml) beschickt und 18 bis 20 Stunden bei 37°C bebrütet. Eine Lösungsmittelkontrolle wurde stets mitgeführt.
# (§5) Die Ablesung wurde makroskopisch vorgenommen, wobei die jeweilige Grenkonzentration (= niedrigste noch bakteriostatisch wirksame Konzentration) ermittelt wurde.
# (§6) Als Testorganismen wurden benützt: - Staphylococcus aureus SG 511, Escherichia coli ATCC 11 775, Pseudomonas aeruginosa Hamburgensis und Walter, Serratia marcescens ATCC 13 880, Klebsiella pneumoniae ATCC 10 031 und BC 6, Proteus mirabilis Hamburgensis, Proteus rettgeri BC 7 und Enterobacter cloacae ATCC 13 047.
# (§7) In der folgenden Tabelle 2 sind die ermittelten minimalen Hemmkonzentrationen (MIC) für typische Vertreter der erfindungsgemäßen Verbindungen aufgeführt, wobei sich die Ziffern auf die Penicilline der Tabelle 1 Seite 18 beziehen.
# [2] = tested on: Klebsiella pneumoniae BC 6; assay: as above; format: cell-based; settings: BC6, liquid medium, 18 to 20 h at 37°C, read-out: MHK-Werte Kl. pneum. BC 6
# Description: as §1, §2, §3, §4, §5, §6, §7
# [3] = tested on: Enterobacter cloacae ATCC 13 047; assay: as above; format: cell-based; settings: ATCC13, liquid medium, 18 to 20 h at 37°C, read-out: MHK-Werte Eb. cloacae 13 047
# Description: as §1, §2, §3, §4, §5, §6, §7
# [4] = tested on: Proteus mirabilis Hamburgensis; assay: as above; format: cell-based; settings: liquid medium, 18 to 20 h at 37°C, read-out: MHK-Werte Prot. mir. Hbg.
# Description: as §1, §2, §3, §4, §5, §6, §7
# [5] = tested on: Staphylococcus aureus SG 511; assay: as above; format: cell-based; settings: SG511, liquid medium, 18 to 20 h at 37°C, read-out: MHK-Werte Staph. aureus SG 511
# Description: as §1, §2, §3, §4, §5, §6, §7
# [6] = tested on: Pseudomonas aeruginosa Walter; assay: as above; format: cell-based; settings: liquid medium, 18 to 20 h at 37°C, read-out: MHK-Werte Pseud. aerug. Walter
# Description: as §1, §2, §3, §4, §5, §6, §7
# Proteus rettgeri BC 7 = assay: as above; format: cell-based; settings: Providencia rettgeri, BC7; liquid medium, 18 to 20 h at 37°C; read-out: MHK-Werte Prot. rettg. BC 7
# Description: as §1, §2, §3, §4, §5, §6, §7
# [7] = tested on: Serratia marcescens ATCC 13 880; assay: as above; format: cell-based; settings: ATCC13, liquid medium, 18 to 20 h at 37°C, read-out: MHK-Werte Serr. marcesc. ATCC 13 880
# Description: as §1, §2, §3, §4, §5, §6, §7
# [8] = tested on: Klebsiella pneumoniae ATCC 10 031; assay: as above; format: cell-based; settings: ATCC10, liquid medium, 18 to 20 h at 37°C, read-out: MHK-Werte Kl. pneum. ATCC 10 031
# Description: as §1, §2, §3, §4, §5, §6, §7
# [9] = tested on: Escherichia coli ATCC 11 775; assay: as above; format: cell-based; settings: ATCC11, liquid medium, 18 to 20 h at 37°C, read-out: MHK-Werte E.coli ATCC 11 755
# Description: as §1, §2, §3, §4, §5, §6, §7
# E.coli ATCC 11 775 = assay: experimental intraperitoneal infection in mice, ED50 (survival); format: in vivo, Mäuse; settings: Escherichia coli, ATCC 11 / ATCC 1175, sc, 168 h; female NMRI mice, i.p. infection, s.c. application, treated once, 7 days observation
# Description: Eine Reihe der erfindungsgemäßen Verbindungen wurde in vivo bei experimentellen Infektionen an Mäusen untersucht. Man verwendete als pathogene Bakterien E.coli ATCC 11 775 und Pseudomonas aeruginosa Walter. Es wurde eine intraperitoneale Infektion mit 0,2 ml einer 5%igen Mucinsuspension der Bakterien gesetzt. Dies entspricht etwa 2x10^6 Keime E.coli bzw. 8x10^5 Keime Pseudomonas/Maus. Weibliche Mäuse vom Stamm NMRI wurden in Gruppen von jeweils 10 Tieren aufgeteilt, zwei Gruppen blieben unbehandelt, die restlichen Gruppen wurden mit verschiedenen Dosen der jeweiligen erfindungsgemäßen Penicilline zur Bestimmung der ED50 (Dosis, bei der 50 % der Tiere überleben) behandelt. Bei der E.coli-Infektion wurde einmal therapiert. Bei der Pseudomonas-Infektion wurde dreimal behandelt.
# Der Beobachtungszeitraum betrug in beiden Fällen 7 Tage. Die Ergebnisse dieser Teste mit repräsentativen Vertretern der erfindungsgemäßen Penicilline sind in der Tabelle 3 dargestellt.
Structure (SMILES),MIC [1],MIC [2],MIC [3],MIC [4],MIC [5],MIC [6],MIC (Proteus rettgeri BC 7),MIC [7],MIC [8],MIC [9],ED50 (E.coli ATCC 11 775)
"CC1(C)S[C@@H]2[C@H](NC(=O)[C@H](NC(=O)N3CCN(S(C)(=O)=O)C3=O)c3ccccc3)C(=O)N2[C@H]1C(=O)O [B, Mezlocillin, reference compound]",16 µg/mL,4 µg/mL,4 µg/mL,0.25 µg/mL,0.25 µg/mL,32 µg/mL,1 µg/mL,0.5 µg/mL,4 µg/mL,2 µg/mL,> 100 mg/kg
"CC1(C)S[C@@H]2[C@H](NC(=O)[C@H](NC(=O)Nc3cnccc3O)c3ccccc3)C(=O)N2[C@H]1C(=O)O [C, D-α-[(4-Hydroxy-3-pyridyl)-ureido]-benzylpenicillin-Natrium, reference compound]",8 µg/mL,32 µg/mL,8 µg/mL,0.25 µg/mL,–,8 µg/mL,1 µg/mL,0.5 µg/mL,32 µg/mL,2 µg/mL,–
CC1(C)S[C@@H]2[C@H](NC(=O)[C@H](NC(=O)Nc3cnc(Nc4ccc(S(N)(=O)=O)cc4)nc3O)c3cccs3)C(=O)N2[C@H]1C(=O)O [Verbindung 2],4 µg/mL,1 µg/mL,2 µg/mL,0.06 µg/mL,0.12 µg/mL,2 µg/mL,0.5 µg/mL,0.25 µg/mL,2 µg/mL,0.5 µg/mL,–
CC1(C)S[C@@H]2[C@H](NC(=O)[C@H](NC(=O)Nc3cnc(Nc4cccc(S(N)(=O)=O)c4)nc3O)c3ccc(O)cc3)C(=O)N2[C@H]1C(=O)O [Verbindung 5],2 µg/mL,2 µg/mL,1 µg/mL,0.06 µg/mL,0.5 µg/mL,2 µg/mL,0.25 µg/mL,0.25 µg/mL,2 µg/mL,0.25 µg/mL,–
CNS(=O)(=O)c1ccc(Nc2ncc(NC(=O)N[C@@H](C(=O)N[C@@H]3C(=O)N4[C@@H]3SC(C)(C)[C@@H]4C(=O)O)c3ccccc3)c(O)n2)cc1 [Verbindung 8],1 µg/mL,1 µg/mL,0.5 µg/mL,0.03 µg/mL,0.12 µg/mL,2 µg/mL,0.5 µg/mL,0.12 µg/mL,0.5 µg/mL,0.12 µg/mL,–
CC1(C)S[C@@H]2[C@H](NC(=O)[C@H](NC(=O)Nc3cnc(Nc4ccc(S(N)(=O)=O)cc4)nc3O)C3=CCC=CC3)C(=O)N2[C@H]1C(=O)O [Verbindung 12],–,–,–,–,–,–,–,–,–,–,5 mg/kg
CNS(=O)(=O)c1ccc(Nc2ncc(NC(=O)N[C@@H](C(=O)N[C@@H]3C(=O)N4[C@@H]3SC(C)(C)[C@@H]4C(=O)O)c3ccc(O)c(Cl)c3)c(O)n2)cc1 [Verbindung 13],2 µg/mL,1 µg/mL,1 µg/mL,0.25 µg/mL,0.25 µg/mL,2 µg/mL,0.5 µg/mL,0.25 µg/mL,2 µg/mL,0.25 µg/mL,–
CN(C)S(=O)(=O)c1ccc(Nc2ncc(NC(=O)N[C@@H](C(=O)N[C@@H]3C(=O)N4[C@@H]3SC(C)(C)[C@@H]4C(=O)O)c3ccc(O)cc3)c(O)n2)cc1 [Verbindung 15],2 µg/mL,1 µg/mL,2 µg/mL,0.12 µg/mL,0.5 µg/mL,2 µg/mL,1 µg/mL,0.25 µg/mL,1 µg/mL,0.25 µg/mL,–

# Reference: patent EP0051773A1, “Penicillins, their salts, process for their preparation and pharmaceutical compositions containing them” (Dr. Karl Thomae GmbH, priority 1980, dated 1982)
